According to ChEMBL document CHEMBL5143754, “Novel Bcl-2 Inhibitors Selectively Disrupt the Autophagy-Specific Bcl-2-Beclin 1 Protein-Protein Interaction” (ACS Med Chem Lett, 2022):

What was measured:
[1] = Half life in ICR/CD-1 mouse liver microsomes at 2 uM preincubated for 5 mins followed by NADPH regenerating system addition by LC-MS/MS analysis; assay type: ADME, Microsome
[2] = target: T1, Apoptosis regulator Bcl-2 (Homo sapiens, UniProt P10415); experiment: Inhibition of biotin-linker-Beclin 1 BH3 peptide binding to human C-terminal 6His-tagged Bcl-2 (1 to 218 residues) expressed in Escherichia coli BL21 Star (DE3) pLysS measured after 3 hrs by AlphaLISA assay
[3] = target: T1, Apoptosis regulator Bcl-2; experiment: Inhibition of biotin-linker-Bax BH3 peptide binding to human C-terminal 6His-tagged Bcl-2 (1 to 218 residues) expressed in Escherichia coli BL21 Star (DE3) pLysS measured after 3 hrs by AlphaLISA assay

T1 sequence (P10415 whole entry, the tested form may be a part): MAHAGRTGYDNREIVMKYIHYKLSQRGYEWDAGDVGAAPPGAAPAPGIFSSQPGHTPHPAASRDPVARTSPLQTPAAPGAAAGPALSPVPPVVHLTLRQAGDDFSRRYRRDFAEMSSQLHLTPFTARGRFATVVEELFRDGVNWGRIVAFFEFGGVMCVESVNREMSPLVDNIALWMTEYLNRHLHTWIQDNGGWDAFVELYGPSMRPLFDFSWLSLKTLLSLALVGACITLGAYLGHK

half-life at 2 µM [1] [min]	IC50 [2] [µM]	Structure (SMILES)	IC50 [3] [µM]
2.9	–	Cc1ccc(C(=O)N2N=C(c3ccc(NS(C)(=O)=O)cc3)CC2c2ccccc2Br)cc1 (configuration not stated)	–
–	4.36	CC(C)(C)OC(=O)Nc1ccc(C2=NN(C(=O)c3ccc(Br)cc3)C(c3cncs3)C2)cc1 (racemic)	–
–	0.309	CC(C)(C)OC(=O)Nc1ccc(C2=NN(C(=O)c3ccc(Br)cc3)C(c3ccccc3)C2)cn1 (racemic)	–
–	10.1	COc1ccc(C(=O)N2N=C(c3ccc(NS(C)(=O)=O)cc3)CC2c2ccco2)cc1 (racemic)	–
–	5.91	CN(C)C(=O)c1ccc(C2=NN(C(=O)c3ccc(Br)cc3)C(c3ccccc3)C2)cc1 (racemic)	–
–	1.64	COC(=O)c1ccc(C2=NN(C(=O)c3ccc(Br)cc3)C(c3ccccc3)C2)cc1 (racemic)	–
120	0.439	CC(C)(C)OC(=O)Nc1ccc(C2=NN(C(=O)c3ccc([N+](=O)[O-])cc3)C(c3ccccc3)C2)cc1 (racemic)	–
–	14.5	CC(C)(C)OC(=O)Nc1ccc(C2=NN(C(=O)c3cccnc3)C(c3ccccc3)C2)cc1 (racemic)	–
–	0.065	C#CCCOC(=O)Nc1ccc(C2=NN(C(=O)c3ccc(Br)cc3)C(c3ccccc3)C2)cc1 (racemic)	–
–	0.0328	CCOC(=O)Nc1ccc(C2=NN(C(=O)c3ccc(Br)cc3)C(c3ccccc3)C2)cc1 (racemic)	6.62
–	7.44	CS(=O)(=O)Nc1ccc(C2=NN(C(=O)c3ccc(C#N)cc3)C(c3ccco3)C2)cc1 (racemic)	–
–	0.002	CC(C)OC(=O)Nc1ccc(C2=NN(C(=O)c3ccc(Br)cc3)C(c3ccccc3)C2C)cn1 (racemic)	0.157
2.9	2.47	CS(=O)(=O)Nc1ccc(C2=NN(C(=O)c3ccc(Br)cc3)C(c3ccco3)C2)cc1 (racemic)	–
–	1.26	CC(C)(C)OC(=O)Nc1ccc(C2=NN(C(=O)c3ccc(Br)cc3)C(c3ccco3)C2)cc1 (racemic)	–
–	3.82	CC(C)(C)OC(=O)Nc1ccc(C2=NN(C(=O)c3ccc(Br)cc3)C(c3ccoc3)C2)cc1 (racemic)	–
–	0.0318	C=CCOC(=O)Nc1ccc(C2=NN(C(=O)c3ccc(Br)cc3)C(c3ccccc3)C2)cc1 (racemic)	8.83
120	0.262	CC(C)(C)OC(=O)Nc1ccc(C2=NN(C(=O)c3ccc(Br)cc3)C(c3ccccc3)C2)cc1 (racemic)	–
–	11.1	CC(C)(C)OC(=O)Nc1cccc(C2=NN(C(=O)c3ccc(Br)cc3)C(c3ccccc3)C2)c1 (racemic)	–
–	12.7	CS(=O)(=O)Nc1ccc(C2=NN(C(=O)c3ccc(F)cc3)C(c3ccco3)C2)cc1 (racemic)	–

half-life at 2 µM [1] [min]	IC50 [2] [µM]	Structure (SMILES)	IC50 [3] [µM]
–	1.63	CC(C)(C)OC(=O)Nc1ccc(C2=NN(C(=O)c3ccc(Br)cc3)C(c3cccnc3)C2)cc1 (racemic)	–
–	0.172	CC(C)(C)OC(=O)Nc1ccc(C2=NN(C(=O)c3ccc(Br)cc3)C(c3ccccc3)C2c2ccccc2)cc1 (racemic)	–
–	0.65	CC(C)(C)OC(=O)Nc1ccc(C2=NN(C(=O)c3ccc(Br)cc3)C(c3ccccn3)C2)cc1 (racemic)	–
–	0.0274	CC1C(c2ccc(NC(=O)OC(C)(C)C)cc2)=NN(C(=O)c2ccc(Br)cc2)C1c1ccccc1 (racemic)	–
–	0.11	CC(C)OC(=O)c1ccc(C2=NN(C(=O)c3ccc(Br)cc3)C(c3ccccc3)C2)cc1 (racemic)	4.36
–	2.72	CS(=O)(=O)Nc1ccc(C2=NN(C(=O)c3ccc(Cl)cc3)C(c3ccco3)C2)cc1 (racemic)	–
–	5.45	CC(C)C(=O)Oc1ccc(C2=NN(C(=O)c3ccc(Br)cc3)C(c3ccccc3)C2)cc1 (racemic)	–
2.9	15.9	Cc1ccc(C(=O)N2N=C(c3ccc(NS(C)(=O)=O)cc3)CC2c2ccco2)cc1 (racemic)	> 10
–	0.164	CC(C)COC(=O)Nc1ccc(C2=NN(C(=O)c3ccc(Br)cc3)C(c3ccccc3)C2)cc1 (racemic)	–
–	3.29	Cc1ccc(C(=O)N2N=C(c3ccc(NC(=O)OC(C)(C)C)cc3)CC2c2ccco2)cc1 (racemic)	–
–	2.78	CC(C)(C)OC(=O)Nc1ccc(C2=NN(C(=O)c3ccc(Br)cc3)C(c3ccncc3)C2)cc1 (racemic)	–
120	0.0044	CC(C)OC(=O)Nc1ccc(C2=NN(C(=O)c3ccc(Br)cc3)C(c3ccccc3)C2)cc1 (racemic)	0.881
–	0.0441	O=C(Nc1ccc(C2=NN(C(=O)c3ccc(Br)cc3)C(c3ccccc3)C2)cc1)OC1CC1 (racemic)	15.1
–	2.1	COC(=O)Nc1ccc(C2=NN(C(=O)c3ccc(Br)cc3)C(c3ccccc3)C2)cc1 (racemic)	–
–	1.61	CC(C)(C)OC(=O)Nc1ccc(C2=NN(C(=O)c3ccc(Br)cc3)C(c3nccs3)C2)cc1 (racemic)	–
2.9	1.97	CS(=O)(=O)Nc1ccc(C2=NN(C(=O)c3ccc([N+](=O)[O-])cc3)C(c3ccco3)C2)cc1 (racemic)	–
2.9	2.88	CS(=O)(=O)Nc1ccc(C2=NN(C(=O)c3ccc(C(F)(F)F)cc3)C(c3ccco3)C2)cc1 (racemic)	–
–	0.372	CC(C)(C)OC(=O)Nc1ccc(C2=NN(C(=O)c3ccc(Br)cc3)C(c3ccccc3)C2)nc1 (racemic)	–
–	9.22	CC(C)(C)NC(=O)Nc1ccc(C2=NN(C(=O)c3ccc(Br)cc3)C(c3ccccc3)C2)cc1 (racemic)	–
